Results published in ChEMBL document CHEMBL1123622, “Quantitative structure-activity relationships of the bitter thresholds of amino acids, peptides, and their derivatives” (J Med Chem, 1987).
Non-standard residues stand in square brackets, D forms with d. Residues, ends and D or L forms follow the SMILES beside them.

Test: Bitter threshold value; B denotes 'bitter'
Assay type: functional
For `CC(C)C[C@H](NC(=O)[C@H](C)NC(=O)[C@H](C)N)C(=O)O` (H-Ala-Ala-Leu-OH), the “Log 1/T” value was “Bitter”.
For `CC(C)C[C@H](NC(=O)[C@H](C)NC(=O)CN)C(=O)O` (H-Gly-Ala-Leu-OH), the “Log 1/T” value was “Bitter”.
In the case of `CC(C)C[C@@H](N)C(=O)NCC(=O)O` (H-[dL]-Gly-OH), the “Log 1/T” value is reported as “Bitter”.
For `CC[C@H](C)[C@H](NC(=O)[C@H](C)N)C(=O)N[C@@H](C)C(=O)O` (H-Ala-Ile-Ala-OH), the “Log 1/T” value was “Bitter”.

Test: Bitter threshold value; NI denotes'Not identifiable (Citrous or fruity taste)'
Assay type: functional
In the case of `CC(C)[C@H](NC(=O)[C@@H]1CCCN1)C(=O)O` (H-Pro-Val-OH), the “Log 1/T” value is reported as “Not identifiable”.
With `O=C(O)CNC(=O)[C@@H]1CCCN1` (H-Pro-Gly-OH) the “Log 1/T” value was “Not identifiable”.
